Ki, melting point and Solubility data for 34 molecules are collected here from patent US10059704B2, “1,4-disubstituted 1,2,3-triazoles, methods for preparing same, and diagnostic and therapeutic uses thereof” (CENTRE NATIONAL DE LA RECHERCHE SCIENTIFIQUE (C.N.R.S.), priority 2011, dated 2018).

Where two headings read alike, the source gives them in different places.

The target in one data set is nicotinic receptors Rα7 (Rattus norvegicus, UniProt Q05941). The data set can be described thus: biochemical. It counts as binding.
Data set [1] in a line: Solubility (solvents listed in table). To be noted: solvents in which the compound is soluble, in words.
Setting [2] is: rat frontal cortex membranes, [125I]α-bungarotoxin 2 nM, 22° C., 3 hours, Ki calculated from IC50 (Cheng and Prussof), read-out: Activity on Rα7.

nicotinic receptors Rα7, sequence (Q05941 23-502): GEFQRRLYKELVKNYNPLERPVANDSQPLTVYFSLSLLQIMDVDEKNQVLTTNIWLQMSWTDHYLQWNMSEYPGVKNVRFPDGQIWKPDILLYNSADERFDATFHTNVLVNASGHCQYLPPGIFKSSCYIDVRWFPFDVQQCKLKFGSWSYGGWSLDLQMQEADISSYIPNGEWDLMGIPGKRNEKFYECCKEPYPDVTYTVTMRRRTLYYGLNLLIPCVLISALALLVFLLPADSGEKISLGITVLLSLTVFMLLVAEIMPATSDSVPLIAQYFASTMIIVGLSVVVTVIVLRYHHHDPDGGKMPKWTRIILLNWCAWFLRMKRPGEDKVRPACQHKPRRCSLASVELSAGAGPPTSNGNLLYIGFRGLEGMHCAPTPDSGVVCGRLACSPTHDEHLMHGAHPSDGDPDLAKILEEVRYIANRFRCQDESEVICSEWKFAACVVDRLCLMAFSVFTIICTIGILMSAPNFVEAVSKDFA

For orientation: melting point means the temperature, or range, at which the solid turns liquid. `CN1[C@@H]2CC[C@H]1C[C@@H](n1cc(-c3ccc4occc4c3)nn1)C2` [Compound 26, Endo-3-(4-(1-benzofuran-5-yl)-1H-1,2,3-triazol-1-yl)topane] yielded a melting point of 104 °C. For the same molecule, the Ki at nicotinic receptors Rα7 came to 13 ± 5 nM. Besides, the Solubility entry in data set [1] was “M = 308.38 g/mol C18H20N4O CHCl3 − DMSO”.
As to `COc1ccc(-c2cn([C@H]3CN4CCC3CC4)nn2)cc1` [Compound 46, (R)-3-(4-(4-Methoxyphenyl)-1H-1,2,3-triazol-1-yl)quinuclidine], the melting point was 122 °C. Besides, the Solubility result in data set [1] was “M = 284.36 g/mol C16H20N4O DMSO”.
Turning to `c1ccc(-c2cn([C@H]3CN4CCC3CC4)nn2)cc1` [Compound 37, (R)-3-(4-Phenyl-1H-1,2,3-triazol-1-yl)quinuclidine], the melting point worked out at 132 °C. Further, the Ki on nicotinic receptors Rα7 (setting [2]) is 8 ± 4 nM.
As to `OCc1ccc(-c2ccc(-c3cn([C@H]4CN5CCC4CC5)nn3)s2)cc1` [Compound 63, (R)-(4-(5-(1-(quinuclidin-3-yl)-1H-1,2,3-triazol-4-yl)thiophen-2-yl)phenyl)methanol], the melting point came out at 253 °C. In addition, on nicotinic receptors Rα7 (setting [2]), the Ki is 0.6 ± 0.2 nM.
`Fc1ccc(-c2cn([C@H]3CN4CCC3CC4)nn2)cn1` [Compound 51, (R)-3-(4-(6-fluoropyridin-3-yl)-1H-1,2,3-triazol-1-yl) quinuclidine] showed a melting point of 147 °C. Further, the Ki on nicotinic receptors Rα7 (setting [2]) is 469 ± 6 nM.
In turn, `O=Cc1ccc(-c2ccc(-c3cn([C@H]4CN5CCC4CC5)nn3)cc2)s1` [Compound 97, (R)-5-[4-[1-[quinuclidin-3-yl]-1H-1,2,3-triazol-4-yl]phenyl]thiophene-2-carbaldehyde] returned a melting point of 228 °C. Also, at nicotinic receptors Rα7, the Ki is 90 to 120 nM.
In turn, `COc1ccc(-c2cn([C@H]3C[C@H]4CC[C@@H](C3)N4C)nn2)cc1` [Compound 19, Endo-3-(4-(4-methoxyphenyl)-1H-1,2,3-triazol-1-yl)tropane] displayed a melting point of 118 °C. Moreover, the Ki on nicotinic receptors Rα7 was found to be 283 ± 76 nM. Moreover, the Solubility result in data set [1] is “M = 298.38 g/mol C17H22N4O CHCl3 − DMSO”.
With `c1csc(-c2cn([C@H]3CN4CCC3CC4)nn2)c1` [Compound 53, (R)-3-(4-(Thiophen-2-yl)-1H-1,2,3-triazol-1-yl)quinuclidine], the melting point worked out at 137 °C. Moreover, on nicotinic receptors Rα7 (setting [2]), the Ki was 9.5 ± 3 nM.
`CN1[C@@H]2CC[C@H]1C[C@@H](n1cc(-c3cccc(F)c3)nn1)C2` [Compound 22, Endo-3-(4-(3-fluorophenyl)-1H-1,2,3-triazol-1-yl)tropane] gave a melting point of 124 °C. For the same molecule, at nicotinic receptors Rα7, the Ki came out at 16 ± 9 nM. The Solubility result in data set [1] is reported as “M = 286.35 g/mol C16H19FN4 CHCl3 − DMSO”.
Molecule `CN1CCN(Cc2ccc(-c3ccc(-c4cn([C@H]5CN6CCC5CC6)nn4)s3)cc2)CC1` [Compound 104, (R)-3-[4-[5-[4-[(4-methylpiperazin-1-yl)methyl]phenyl]-2-thienyl]-1H-1,2,3-triazol-1-yl]quinuclidine] had a melting point of 214 °C. The Ki on nicotinic receptors Rα7 (setting [2]) is 0.3 nM.
With `OCc1ccc(-c2ccc(-c3cn([C@H]4CN5CCC4CC5)nn3)cc2)cc1` [Compound 93, (R)-[4-[4-[1-[quinuclidin-3-yl]-1H-1,2,3-triazol-4-yl]phenyl]phenyl]methanol], the melting point was 250 °C. This molecule also gave a Ki at nicotinic receptors Rα7 of 137 nM.
On the same counts, the results for `Brc1cccc(-c2cn([C@H]3CN4CCC3CC4)nn2)c1` [Compound 83, (R)-3-[4-(3-bromophenyl)-1H-1,2,3-triazol-1-yl]quinuclidine] are 188 °C and 11 nM.
On the same counts, the results for `Nc1c(-c2ccccc2)nnn1[C@H]1CN2CCC1CC2` [Compound 60, (R)-4-Phenyl-1-(quinuclidin-3-yl)-1H-1,2,3-triazol-5-amine] are 120 °C and 11 ± 4 nM.
The molecule `c1cc(-c2ccc(-c3cn([C@H]4CN5CCC4CC5)nn3)s2)ccc1CN1CCOCC1` [Compound 102] came in with a melting point of 222 °C. The Ki on nicotinic receptors Rα7 (setting [2]) was 0.9 nM.
Turning to `Fc1ccc(-c2cccc(-c3cn([C@H]4CN5CCC4CC5)nn3)c2)cn1` [Compound 100, (R)-3-[4-[3-(6-fluoro-3-pyridyl)phenyl]-1H-1,2,3-triazol-1-yl]quinuclidine], the melting point was 164 °C. Moreover, the Ki at nicotinic receptors Rα7 (setting [2]) is 16 nM.
`COC(=O)c1ccc(-c2ccc(-c3cn([C@H]4CN5CCC4CC5)nn3)s2)cc1F` [Compound 105, Methyl-2-fluoro-4-[5-[1-[(3R)-quinuclidin-3-yl]-1H-1,2,3-triazol-4-yl]-2-thienyl]benzoate] returned a melting point of 250 °C. Also, at nicotinic receptors Rα7, the Ki amounted to 85 nM.
Regarding `OCc1ccc(-c2cccc(-c3cn([C@H]4CN5CCC4CC5)nn3)c2)cc1` [Compound 98, (R)-[4-[3-[1-[quinuclidin-3-yl]-1H-1,2,3-triazol-4-yl]phenyl]phenyl]methanol], the melting point was found to be 214 °C. The molecule further yielded a Ki at nicotinic receptors Rα7 of 105 nM.
On the same counts, the results for `OCc1ccc(-c2cccc(-c3cn([C@H]4CN5CCC4CC5)nn3)c2)s1` [Compound 115, (R)-[5-[3-[1-[quinuclidin-3-yl]-1H-1,2,3-triazol-4-yl]phenyl]-2-thienyl]-methanol] are 176 °C and 0.5 nM.
As for `Fc1cccc(-c2cn([C@H]3CN4CCC3CC4)nn2)c1` [Compound 43, (R)-3-(4-(3-Fluorophenyl)-1H-1,2,3-triazol-1-yl)quinuclidine], the melting point was found to be 120 °C. Moreover, on nicotinic receptors Rα7 (setting [2]), the Ki is 10 ± 1 nM.
`Brc1ccc(-c2cn([C@H]3CN4CCC3CC4)nn2)s1` [Compound 54, (R)-3-(4-(5-Bromothiophen-2-yl)-1H-1,2,3-triazol-1-yl) quinuclidine] came in with a melting point of 146 °C. Besides, the Ki at nicotinic receptors Rα7 is 13 ± 4 nM.
`OCc1cccc(-c2csc(-c3cn([C@H]4CN5CCC4CC5)nn3)c2)c1` [Compound 89, (R)-[3-[5-[1-[quinuclidin-3-yl]-1H-1,2,3-triazol-4-yl]-3-thienyl]phenyl]methanol] came in with a melting point of 211 °C. For the same molecule, at nicotinic receptors Rα7 (setting [2]), the Ki was 13 nM.
Turning to `O=Cc1ccc(-c2cccc(-c3cn([C@H]4CN5CCC4CC5)nn3)c2)s1` [Compound 101, (R)-5-[3-[1-[quinuclidin-3-yl]-1H-1,2,3-triazol-4-yl]phenyl]thiophene-2-carbaldehyde], the melting point amounted to 150 °C. Further, the Ki at nicotinic receptors Rα7 is 7 nM.
`Fc1ccc(-c2cn([C@H]3CN4CCC3CC4)nn2)cc1F` [Compound 45, (R)-3-(4-(3,4-difluorophenyl)-1H-1,2,3-triazol-1-yl) quinuclidine] registered a melting point of 122 °C. The Ki at nicotinic receptors Rα7 (setting [2]) is 10 ± 4 nM.
For `FCc1ccc(-c2ccc(-c3cn([C@H]4CN5CCC4CC5)nn3)s2)cc1` [Compound 112, (R)-3-[4-[5-[4-(fluoromethyl)phenyl]-2-thienyl]-1H-1,2,3-triazol-1-yl]quinuclidine], the melting point worked out at 199 °C. Also, the Ki at nicotinic receptors Rα7 (setting [2]) is 5 nM.
On the same counts, the results for `OCc1cccc(-c2cccc(-c3cn([C@H]4CN5CCC4CC5)nn3)c2)c1` [Compound 99, (R)-[3-[3-[1-[quinuclidin-3-yl]-1H-1,2,3-triazol-4-yl]phenyl]phenyl]methanol] are 201 °C and 1.4 nM.
Consider `COc1ccc(-c2cn([C@H]3CN4CCC3CC4)nn2)cn1` [Compound 52, (R)-3-(4-(6-Methoxypyridin-3-yl)-1H-1,2,3-triazol-1-yl)quinuclidine], for which the melting point was found to be 155 °C. Further, the Ki at nicotinic receptors Rα7 (setting [2]) was 105 ± 29 nM.
`Fc1ccc(-c2coc(-c3cn([C@H]4CN5CCC4CC5)nn3)c2)cn1` [Compound 91, (R)-3-[4-[4-(6-fluoro-3-pyridyl)-2-furyl]-1H-1,2,3-triazol-1-yl]quinuclidine] displayed a melting point of 210 °C. The same molecule yielded a Ki at nicotinic receptors Rα7 of 117 nM.
In turn, `Clc1ccc(-c2cn([C@H]3CN4CCC3CC4)nn2)cc1Cl` [Compound 40, (R)-3-(4-(3,4-Dichlorophenyl)-1H-1,2,3-triazol-1-yl)quinuclidine] yielded a melting point of 108 °C. Moreover, the Ki on nicotinic receptors Rα7 (setting [2]) is 19 ± 6 nM.
`OCc1ccc(-c2ccc(-c3cn([C@H]4CN5CCC4CC5)nn3)o2)cc1` [Compound 84, (R)-[4-[5-[1-[quinuclidin-3-yl]-1H-1,2,3-triazol-4-yl]-2-furyl]-phenyl]-methanol]: the melting point stood at 209 °C. On nicotinic receptors Rα7, this molecule showed a Ki of 6 nM.
`COc1ccc2cc(-c3cn([C@H]4CN5CCC4CC5)nn3)ccc2c1` [Compound 49, (R)-3-(4-(6-Methoxynaphthalen-2-yl)-1H-1,2,3-triazol-1-yl)quinuclidine]: the melting point was determined as 186 °C. For the same molecule, the Ki on nicotinic receptors Rα7 (setting [2]) is 196 ± 21 nM.
`c1coc(-c2ccc(-c3cn([C@H]4CN5CCC4CC5)nn3)s2)c1` [Compound 62, (R)-3-(4-(5-(Furan-2-yl)thiophen-2-yl)-1H-1,2,3-triazol-1-yl)quinuclidine] returned a melting point of 180 °C. Moreover, the Ki on nicotinic receptors Rα7 (setting [2]) was 10 ± 1 nM.
In turn, `c1cc(-c2ccc(-c3cn([C@H]4CN5CCC4CC5)nn3)s2)ccc1CN1CCCCC1` [Compound 103, (R)-3-[4-[5-[4-(1-piperidylmethyl)phenyl]-2-thienyl]-1H-1,2,3-triazol-1-yl]quinuclidine] returned a melting point of 230 °C. Besides, the Ki on nicotinic receptors Rα7 (setting [2]) is 0.3 nM.
`c1csc(-c2ccc(-c3cn([C@H]4CN5CCC4CC5)nn3)s2)c1` [Compound 61, (R)-3-(4-(2,7-Bithiophen-5-yl)-1H-1,2,3-triazol-1-yl)quinuclidine] yielded a melting point of 182 °C. For the same molecule, on nicotinic receptors Rα7 (setting [2]), the Ki was 20 ± 2 nM.
Molecule `Clc1ccc(-c2cn([C@H]3CN4CCC3CC4)nn2)cc1` [Compound 39, (R)-3-(4-(4-Chlorophenyl)-1H-1,2,3-triazol-1-yl)quinuclidine] came in with a melting point of 144 °C. For the same molecule, the Ki on nicotinic receptors Rα7 (setting [2]) was 8 ± 3 nM.
